Target: T1, human TRPC6 (Homo sapiens, UniProt Q9Y210)
T1 construct: expressed in transfected cells
T1 sequence (Q9Y210 1-931): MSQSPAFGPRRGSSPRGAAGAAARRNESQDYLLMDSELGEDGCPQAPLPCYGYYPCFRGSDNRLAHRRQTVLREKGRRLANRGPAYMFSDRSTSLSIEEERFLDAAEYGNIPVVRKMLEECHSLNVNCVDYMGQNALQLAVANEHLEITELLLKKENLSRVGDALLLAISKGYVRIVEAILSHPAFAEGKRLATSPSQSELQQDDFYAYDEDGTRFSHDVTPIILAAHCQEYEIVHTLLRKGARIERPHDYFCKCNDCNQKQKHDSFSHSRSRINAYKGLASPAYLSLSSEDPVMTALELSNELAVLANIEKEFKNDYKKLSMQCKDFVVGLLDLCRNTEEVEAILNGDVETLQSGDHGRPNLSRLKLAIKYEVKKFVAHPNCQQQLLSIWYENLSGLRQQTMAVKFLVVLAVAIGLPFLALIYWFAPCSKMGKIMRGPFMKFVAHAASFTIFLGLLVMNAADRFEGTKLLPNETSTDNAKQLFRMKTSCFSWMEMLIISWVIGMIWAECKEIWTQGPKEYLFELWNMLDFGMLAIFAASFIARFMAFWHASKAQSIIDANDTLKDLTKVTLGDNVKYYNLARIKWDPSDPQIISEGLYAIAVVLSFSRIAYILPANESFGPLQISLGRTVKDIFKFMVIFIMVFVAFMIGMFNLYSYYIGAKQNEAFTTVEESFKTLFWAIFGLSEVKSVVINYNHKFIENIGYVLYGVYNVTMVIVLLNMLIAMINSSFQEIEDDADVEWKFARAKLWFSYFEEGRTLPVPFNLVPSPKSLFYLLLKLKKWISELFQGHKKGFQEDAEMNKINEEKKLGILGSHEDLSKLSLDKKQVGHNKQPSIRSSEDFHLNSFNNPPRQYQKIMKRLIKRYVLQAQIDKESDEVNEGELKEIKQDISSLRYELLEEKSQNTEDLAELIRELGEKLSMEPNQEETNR
Assay: High throughput screening assay: Fluo4/AM calcium fluorescence in HEK293/TREx cells expressing human TRPC6, agonist GSK1702934A (single concentration 10 μM and IC50 curves)
Format: cell-based
Conditions: antagonist effect against human TRPC6, 7 concentrations 20 μM to 0.027 μM, triplicate
Summary of the method: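 HEK293/TREx cells stably carrying tetracycline-induced (1 μg/ml) human TRPC6, loaded with Fluo4/AM (0.5 μM, 60 min, RT), pretreated 2 min with compound (10 μM final in screen), then stimulated with GSK1702934A in high-Ca2+ Ringer's (20 mM Ca2+ final). Fluorescence ratio over ~3 min normalized to no-compound and control-blocker wells; IC50 from triplicate curves.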

Row | SMILES | IC50 [nM]
1 | COc1cc(C(=O)N2CCC(c3ccc(N)nn3)CC2)ncc1-c1ccc(F)cc1 [Compound 36, 6-{1-[5-(4-Fluorophenyl)-4-methoxypyridine-2-carbonyl]piperidin-4-yl}pyridazin-3-amine] | 27
2 | COc1cc(C(=O)N2CCC(c3ccc(N)nn3)CC2)ncc1-c1cnc(OC(C)C)nc1 [Compound 53, [4-(6-Amino-pyridazin-3-yl)-piperidin-1-yl]-[5-(2-isopropoxy-pyrimidin-5-yl)-4-methoxy-pyridin-2-yl]-methanone] | 3600
3 | COc1cc(C(=O)N2CCC(c3ccc(N)nn3)CC2)ncc1-c1ccc(F)c(F)c1 [Compound 33, [4-(6-Amino-pyridazin-3-yl)-piperidin-1-yl]-[5-(3,4-difluoro-phenyl)-4-methoxy-pyridin-2-yl]-methanone] | 62
4 | Nc1ccc(C2CCN(C(=O)c3ccc4c(c3)oc3ccccc34)CC2)nn1 [Compound 11, [4-(6-Amino-pyridazin-3-yl)-piperidin-1-yl]-dibenzofuran-3-yl-methanone] | 2000
5 | Nc1ccc(C2CCN(C(=O)c3ccc(-c4ccccc4)cc3)CC2)nn1 [Compound 1, [4-(6-Amino-pyridazin-3-yl)-piperidin-1-yl]-biphenyl-4-yl-methanone] | 3800
6 | COc1cc(C(=O)N2CCC(c3ccc(N)nn3)CC2)ncc1-c1cccc(OCC(C)C)c1 [Compound 52, [4-(6-Amino-pyridazin-3-yl)-piperidin-1-yl]-[5-(3-isobutoxy-phenyl)-4-methoxy-pyridin-2-yl]-methanone] | 240
7 | COc1cccc(-c2ccc(C(=O)N3CCC(c4ccc(N)nn4)CC3)cc2)c1 [Compound 9, [4-(6-Amino-pyridazin-3-yl)-piperidin-1-yl]-(3′-methoxy-biphenyl-4-yl)-methanone] | 5400
8 | COc1cc(C(=O)N2CCC(c3ccc(N)nn3)CC2)ncc1-c1ccc(F)c(OCC(F)(F)F)c1 [Compound 15, [4-(6-Amino-pyridazin-3-yl)-piperidin-1-yl]-{5-(4-fluoro-3-(2,2,2-trifluoro-ethoxy)-phenyl]-4-methoxy-pyridin-2-yl}-methanone] | 1700
9 | COc1cc(C(=O)N2CCC(c3ccc(N)nn3)CC2)ncc1-c1ccc(C(F)(F)F)c(OC)c1 [Compound 25] | 340
10 | CCOc1ccc(-c2cnc(C(=O)N3CCC(c4ccc(N)nn4)CC3)cc2OC)cn1 [Compound 45, [4-(6-Amino-pyridazin-3-yl)-piperidin-1-yl]-(6′-ethoxy-4-methoxy-[3,3′]bipyridinyl-6-yl)-methanone] | 440
11 | COc1cc(C(=O)N2CCC(c3ccc(N)nn3)CC2)cnc1-c1ccc(C(F)(F)F)cc1 [Compound 65, [4-(6-Amino-pyridazin-3-yl)-piperidin-1-yl]-[5-methoxy-6-(4-trifluoromethyl-phenyl)-pyridin-3-yl]-methanone] | 860
12 | COc1cc(C(=O)N2CCC(c3ccc(N)nn3)CC2)ncc1-c1ccc(OCC(F)(F)F)nc1 [Compound 47, [4-(6-Amino-pyridazin-3-yl)-piperidin-1-yl]-[4-methoxy-6′-(2,2,2-trifluoro-ethoxy)-[3,3′]bipyridinyl-6-yl]-methanone] | 200
13 | COc1cc(-c2cnc(C(=O)N3CCC(c4ccc(N)nn4)CC3)cc2OC)ccc1F [Compound 14, [4-(6-Amino-pyridazin-3-yl)-piperidin-1-yl]-[5-(4-fluoro-3-methoxy-phenyl)-4-methoxy-pyridin-2-yl]-methanone] | 3300
14 | COc1cc(C(=O)N2CCC(c3ccc(N)nn3)CC2)ncc1-c1ccc(OCC(F)(F)F)cc1 [Compound 29, [4-(6-Amino-pyridazin-3-yl)-piperidin-1-yl]-{4-methoxy-5-[4-(2,2,2-trifluoro-ethoxy)-phenyl]-pyridin-2-yl}-methanone] | 110
15 | COc1cc(C(=O)N2CCN(c3ccc(N)nc3)CC2)ncc1-c1ccccc1 [Compound 68, 5-[4-(4-Methoxy-5-phenylpyridine-2-carbonyl)piperazin-1-yl]pyridin-2-amine] | 39
16 | CCc1ccc(-c2ccc(C(=O)N3CCC(c4ccc(N)nn4)CC3)cc2)cc1 [Compound 2, [4-(6-Amino-pyridazin-3-yl)-piperidin-1-yl]-(4′-ethyl-biphenyl-4-yl)-methanone] | 2000
17 | COc1cc(C(=O)N2CCC(c3ccc(N)nn3)CC2)ncc1-c1cnc(OCC(F)(F)F)nc1 [Compound 54] | 830
18 | COc1cc(C(=O)N2CCC(c3ccc(N)nn3)CC2)ncc1-c1cccc(OCC2CC2)c1 [Compound 21, [4-(6-Amino-pyridazin-3-yl)-piperidin-1-yl]-[5-(3-cyclopropylmethoxy-phenyl)-4-methoxy-pyridin-2-yl]-methanone] | 160
19 | Nc1ccc(C2CCN(C(=O)c3ccc(-c4cccc(Cl)c4)cc3)CC2)nn1 [Compound 6, [4-(6-Amino-pyridazin-3-yl)-piperidin-1-yl]-(3′-chloro-biphenyl-4-yl)-methanone] | 4400
20 | COc1cc(C(=O)N2CCC(c3ccc(N)nn3)CC2)ccc1-c1ccc(OC(F)(F)F)cc1 [Compound 56, [4-(6-Amino-pyridazin-3-yl)-piperidin-1-yl]-(2-methoxy-4′-trifluoromethoxy-biphenyl-4-yl)-methanone] | 910
21 | COc1cc(C(=O)N2CCC(c3ccc(N)nn3)CC2)ncc1-c1ccc(OC(C)C)cc1 [Compound 30, [4-(6-Amino-pyridazin-3-yl)-piperidin-1-yl]-[5-(4-isopropoxy-phenyl)-4-methoxy-pyridin-2-yl]-methanone] | 340

The next lines start with the values.

Row | IC50 [nM] | SMILES
22 | 230 | COC[C@H]1CN(c2cnc(N)cc2OC)CCN1C(=O)c1cc(OC)c(-c2ccccc2)cn1 [Compound 100, [(R)-4-(6-Amino-4-methoxy-pyridin-3-yl)-2-methoxymethyl-piperazin-1-yl]-(4-methoxy-5-phenyl-pyridin-2-yl)-methanone]
23 | 27 | COc1cc(C(=O)N2CCC(c3ccc(N)nc3)CC2)ncc1-c1ccc(F)cc1 [Compound 72, (6-Amino-3′,4′,5′,6′-tetrahydro-2′H-[3,4′]bipyridinyl-1′-yl)-[5-(4-fluoro-phenyl)-4-methoxy-pyridin-2-yl]methanone]
24 | 27 | COc1cc(C(=O)N2CCN(c3cnc(N)cc3C)C[C@@H]2CO)ncc1-c1ccc(F)cc1 [Compound 93, [(R)-4-(6-Amino-4-methyl-pyridin-3-yl)-2-hydroxymethyl-piperazin-1-yl]-[5-(4-fluoro-phenyl)-4-methoxy-pyridin-2-yl]-methanone]
25 | 27 | COc1cc(C(=O)N2CCN(c3cnc(N)cc3OC)CC2)ncc1-c1ccc(C(F)(F)F)cc1 [Compound 103, [4-(6-Amino-4-methoxy-pyridin-3-yl)-piperazin-1-yl]-[4-methoxy-5-(4-trifluoromethyl-phenyl)-pyridin-2-yl]-methanone]
26 | 330 | COc1cc(C(=O)N2CCN(c3cnc(N)cc3OC)CC2CC(F)F)ncc1-c1ccc(C(F)(F)F)cc1 (single isomer, unassigned) [Compound 109]
27 | 300 | COC[C@H]1CN(c2cnc(N)cc2OC)CCN1C(=O)c1cc(OC)c(-c2ccc(C(F)(F)F)cc2)cn1 [Compound 99, [(R)-4-(6-Amino-4-methoxy-pyridin-3-yl)-2-methoxymethyl-piperazin-1-yl]-[4-methoxy-5-(4-trifluoromethyl-phenyl)-pyridin-2-yl]-methanone]
28 | 1400 | CCc1cc(C(=O)N2CCC(c3ccc(N)nn3)CC2)ccc1-c1ccc(C(F)(F)F)cc1 [Compound 70, [4-(6-Amino-pyridazin-3-yl)-piperidin-1-yl]-(2-ethyl-4′-trifluoromethyl-biphenyl-4-yl)-methanone]
29 | 580 | COc1cc(C(=O)N2CCN(c3cnc(N)cc3OC)C[C@@H]2CO)ncc1-c1ccc(C(F)(F)F)cc1 [Compound 95, [(R)-4-(6-Amino-4-methoxy-pyridin-3-yl)-2-hydroxymethyl-piperazin-1-yl]-[4-methoxy-5-(4-trifluoromethyl-phenyl)-pyridin-2-yl]-methanone]
30 | 32 | COc1cc(C(=O)N2CCN(c3cnc(N)cc3OC)CC2)ncc1-c1ccccc1 [Compound 105, 4-Methoxy-5-[4-(4-methoxy-5-phenylpyridine-2-carbonyl)piperazin-1-yl]pyridin-2-amine]
31 | 27 | COc1cc(C(=O)N2CCC(c3ccc(N)nc3)CC2)ncc1-c1ccccc1 [Compound 71, 5-[1-(4-Methoxy-5-phenylpyridine-2-carbonyl)piperidin-4-yl]pyridin-2-amine]

Reference: patent publication US11485740B2, “Inhibitors of TRPC6” (Boehringer Ingelheim International GmbH, priority 2018, dated 2022)
